Test [1] deals with ABCA1. Put plainly: Cellular cholesterol efflux to apo-AI from [3H]-cholesterol-labeled J774 macrophages. The test is classed as cell-based, mouse. To be noted: 16 hours pretreatment, J774 cells, apo-AI 20 μg/ml acceptor. As for the experimental part:
(§1) Stock cultures of J774 mouse macrophage cell line were grown in RPMI 1640 supplemented with 10% FBS and 50 μg/ml gentamicin at 37° C. in a humidified atmosphere containing 95% air and 5% CO2.
(§2) Cells were seeded in 96 wells (96-well plate, 0.15 ml/well) using 50,000 to 100,000 cells per well and grown in RPMI 1640-10% FBS and 0.5% gentamicin at37° C. for 72 hours to achieve 80-90% confluence. Radiolabeled cholesterol ([1,2-^3H] cholesterol, New England Nuclear) was added to the cells by adding a tracer amount (1-5 μCi/well in a final concentration of 0.1% ethanol) to FBS, which was then diluted to a final concentration of 1% in RPMI. An acyl-CoA cholesterol acyltransferase (ACAT) inhibitor (decanamide, 2-(hexylthio)-N-[6-methyl-2,4-bis(methylthio)-3-pyridinyl]-,(2S)-(9Cl) at 2 μg/ml) was added to the labeling medium. […] Cells were grown in the presence of the radiolabel for two additional days to obtain confluent monolayers. For experiments where cells are enriched in free cholesterol, acetylated LDL (100 μg of protein/ml) was included in the labeling mixture. Following the labeling period, cells were extensively washed using MEM-Hepes medium supplemented with 0.5% gentamicin, and incubated with either cpt-cAMP (positive control) at 0.3 mM or test compounds (varying concentrations may be used, although […] was selected for the present experiment) for an additional 16 hours.
At the end of the pretreatment period with cpt-cAMP or test compounds, cells were extensively washed with MEM-Hepes medium containing gentamicin and incubated in RPMI 1640 medium containing the cholesterol acceptor apo-AI at a final concentration of 20 μg/ml. Parallel monolayers of control or treated cells were also incubated with acceptor-free medium to determine background, non-acceptor mediated cholesterol efflux. Cellular cholesterol efflux was quantified by measuring the release of cellular [^3H]-cholesterol into the medium as a function of time. An aliquot of the incubation medium was filtered using a 0.45 micron Millipore multiscreen plate to remove any floating cells and then counted using a Wallac Microbeta Counter (Perkin-Elmer Life Sciences, Turku, Finland).
The amount of radiolabeled cholesterol released from the cells (% efflux) is determined by the amount of radioactivity present in the incubation medium divided by the radioactivity at time zero (T0). Radtio activty at time zero is calculated as the amount of radioactivity in the cells as determined by isopropanol extraction at the end of the treatment time.

Another test deals with ABCA1 mRNA. The test can be described thus: ABCA1 mRNA level in treated cells. The test is classed as cell-based, mouse. As for the experimental part:
In the case where the analysis of ABCA1 expression is required, total RNA may be isolated (e.g., by the method according to Chomczynski et al., N. Anal. Biochem., 162:156 (1987)) and ABCA1 mRNA levels determined by standard techniques such as Northern blotting, slot blot hybridization, or Ribonuclease protection assays using ABCA1 specific mRNA probes.
as §1, §2

Test [2] relates to ABCA1. Put plainly: Cellular cholesterol efflux to apo-AI from [3H]-cholesterol-labeled J774 macrophages. Format: cell-based, mouse. To be noted: 1 μM, 16 hours pretreatment, J774 cells, apo-AI 20 μg/ml acceptor.
For test [3], the target named is T1, acyl-CoA cholesterol acyltransferase (ACAT) (Mus musculus, UniProt Q61263).
T1 construct: endogenous in cells; host or cells: J774 mouse macrophage cell line
T1 sequence (Q61263 1-540): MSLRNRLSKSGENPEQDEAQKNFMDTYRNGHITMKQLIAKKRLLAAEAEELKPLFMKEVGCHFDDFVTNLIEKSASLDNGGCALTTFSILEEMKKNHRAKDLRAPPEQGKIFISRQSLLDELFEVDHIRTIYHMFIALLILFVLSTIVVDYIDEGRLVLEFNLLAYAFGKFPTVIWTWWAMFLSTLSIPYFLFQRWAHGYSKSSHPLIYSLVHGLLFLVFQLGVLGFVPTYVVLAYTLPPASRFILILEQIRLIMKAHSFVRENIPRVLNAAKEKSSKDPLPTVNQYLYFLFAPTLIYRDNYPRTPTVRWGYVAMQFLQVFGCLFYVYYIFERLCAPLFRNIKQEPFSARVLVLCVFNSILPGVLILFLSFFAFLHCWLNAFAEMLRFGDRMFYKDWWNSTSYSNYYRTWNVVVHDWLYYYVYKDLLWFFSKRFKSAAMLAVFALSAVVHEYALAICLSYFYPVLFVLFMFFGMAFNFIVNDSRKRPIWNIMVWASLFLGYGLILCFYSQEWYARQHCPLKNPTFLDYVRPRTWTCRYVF
The test can be described thus: ACAT inhibition in labeling medium of J774 cells. To be noted: 2 μg/ml in labeling medium. The test is classed as cell-based. The procedure:
as §2

Experimental findings from patent US6555323B2, “Assay for ABCA1” (Pfizer Inc., priority 2000, dated 2003) are described below.

With `COc1ccc(-c2cn3c(C)nnc3c(N3CCC4(CC3)C(=O)NCN4c3ccccc3)n2)cc1`, the “% of control (cholesterol efflux)” value in the test on ABCA1 [1] (5 μM) is 101 % of control.
In the case of `CN(c1ccc(C(O)(C(F)(F)F)C(F)(F)F)cc1)S(=O)(=O)c1ccccc1[N+](=O)[O-]`, in the test on ABCA1 [1] (5 μM), the “% of control (cholesterol efflux)” value is 185 % of control. Moreover, the “% of control mRNA” value in the test with ABCA1 mRNA (5 μM) was 160 % of control.
Turning to `O=S(=O)(c1ccccc1)N(CC(F)(F)F)c1ccc(C(O)(C(F)(F)F)C(F)(F)F)cc1`, the “% of control (cholesterol efflux)” value in the test with ABCA1 [1] (5 μM) is recorded as 177 % of control. In addition, the “% of control mRNA” value in the test on ABCA1 mRNA (5 μM) is 680 % of control.
As for `Cc1nnc2c(N3CCC4(CC3)C(=O)NCN4c3ccccc3)nc(-c3ccc(O)cc3)cn12`, in the test with ABCA1 [1] (5 μM), the “% of control (cholesterol efflux)” value is 106 % of control.
`COc1ccc(-c2cn3c(C)nnc3c(N3CCC(C)(N(C)c4cccc(F)c4)CC3)n2)cc1`: the “% of control (cholesterol efflux)” value in the test with ABCA1 [1] (5 μM) is 94 % of control.
Still for that read-out and setting: the same measure for `COc1ccc(-c2cn3c(C)nnc3c(N3CCC4(CC3)C(=O)NCN4c3ccccc3)n2)cc1OC`: 111 % of control.
Turning to `Cc1nnc2c(N3CCC4(CC3)C(=O)NCN4c3ccccc3)nc(-c3ccc4c(c3)OCO4)cn12`, the “% of control (cholesterol efflux)” value in the test on ABCA1 [1] (5 μM) is 82 % of control.
As for `COc1cc(-c2cn3c(C)nnc3c(N3CCC4(CC3)C(=O)NCN4c3ccccc3)n2)cc(OC)c1OC`, the “% of control (cholesterol efflux)” value in the test with ABCA1 [1] (5 μM) is on record as 95 % of control.
Turning to `Cc1nnc2n1-c1sccc1C(c1ccccc1)=NC2`, the “% of control (cholesterol efflux)” value in the test on ABCA1 [1] (5 μM) is recorded as 102 % of control.
In the case of `Cc1nnc2c(N3CCC4(CC3)C(=O)NCN4c3ccccc3)nc(-c3ccccc3)cn12`, the “% of control (cholesterol efflux)” value with ABCA1 [1] (5 μM) is reported as 109 % of control.
Consider `CCCCC[C@H](O)/C=C/[C@H]1[C@H](O)CC(=O)[C@@H]1CCCCCCC(=O)O` [Prostaglandin E1, reference compound], for which, in the test on ABCA1 mRNA (1 μM), the “% of control mRNA” value is 1420 % of control. Also, the “% of control (cholesterol efflux)” value with ABCA1 [2] is listed as 210 % of control.
As for `Nc1ncnc2c1nc(Sc1ccc(Cl)cc1)n2[C@@H]1O[C@@H]2COP(=O)(O)O[C@H]2[C@H]1O` [cpt-cAMP, reference compound], the “% of control (cholesterol efflux)” value with ABCA1 [1] (0.3 mM) was 425 % of control. Further, in the test with ABCA1 mRNA (0.3 mM), the “% of control mRNA” value is listed as 1600 % of control.
With `CCCCCCCC[C@H](SCCCCCC)C(=O)Nc1c(SC)cc(C)nc1SC` [decanamide, 2-(hexylthio)-N-[6-methyl-2,4-bis(methylthio)-3-pyridinyl]-,(2S)-(9Cl)], the ACAT activity result in test [3] was “completely inhibited”.
